Measurements published in ChEMBL document CHEMBL5291721, “A preclinical secondary pharmacology resource illuminates target-adverse drug reaction associations of marketed drugs” (Nat Commun, 2023).

Experiments:
Adenosine receptor A3 = biological target: T1, Adenosine receptor A3 (Homo sapiens, UniProt P0DMS8)
T1 sequence (P0DMS8 whole entry): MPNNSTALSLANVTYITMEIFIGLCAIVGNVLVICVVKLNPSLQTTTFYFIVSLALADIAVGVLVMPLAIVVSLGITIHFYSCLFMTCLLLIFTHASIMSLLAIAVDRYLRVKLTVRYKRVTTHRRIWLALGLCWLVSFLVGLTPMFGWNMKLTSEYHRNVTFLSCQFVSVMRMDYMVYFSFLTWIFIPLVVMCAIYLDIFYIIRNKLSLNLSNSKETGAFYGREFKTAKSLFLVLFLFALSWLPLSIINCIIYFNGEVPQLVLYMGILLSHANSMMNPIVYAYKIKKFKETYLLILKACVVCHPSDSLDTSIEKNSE

[1] = biological target: 5-hydroxytryptamine receptor 2B (Homo sapiens, UniProt P41595); assay type: functional, cell-based
[2] = biological target: T2, 5-hydroxytryptamine receptor 2C (Homo sapiens, UniProt P28335)
T2 sequence (P28335 whole entry): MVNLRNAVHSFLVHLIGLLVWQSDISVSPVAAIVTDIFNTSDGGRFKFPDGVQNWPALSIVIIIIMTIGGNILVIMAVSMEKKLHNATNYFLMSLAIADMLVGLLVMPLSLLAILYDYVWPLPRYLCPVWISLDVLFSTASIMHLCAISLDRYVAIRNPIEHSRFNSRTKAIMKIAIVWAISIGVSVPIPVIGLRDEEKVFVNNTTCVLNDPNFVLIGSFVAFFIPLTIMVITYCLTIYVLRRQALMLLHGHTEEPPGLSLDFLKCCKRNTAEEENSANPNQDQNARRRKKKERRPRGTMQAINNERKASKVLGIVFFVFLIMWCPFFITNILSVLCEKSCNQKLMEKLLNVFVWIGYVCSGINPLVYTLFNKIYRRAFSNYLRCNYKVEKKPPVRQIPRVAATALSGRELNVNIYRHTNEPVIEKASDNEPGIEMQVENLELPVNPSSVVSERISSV

Adenosine receptor A1 = biological target: T3, Adenosine receptor A1 (Homo sapiens, UniProt P30542)
T3 sequence (P30542 whole entry): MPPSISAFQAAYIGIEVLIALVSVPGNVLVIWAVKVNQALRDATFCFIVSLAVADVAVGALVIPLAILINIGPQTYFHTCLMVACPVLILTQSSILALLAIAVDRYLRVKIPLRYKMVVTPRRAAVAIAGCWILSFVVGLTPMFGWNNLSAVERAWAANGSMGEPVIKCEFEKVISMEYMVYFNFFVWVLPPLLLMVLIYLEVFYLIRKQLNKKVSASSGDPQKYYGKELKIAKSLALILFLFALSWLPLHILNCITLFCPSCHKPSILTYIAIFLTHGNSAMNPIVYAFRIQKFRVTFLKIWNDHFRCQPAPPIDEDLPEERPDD

Cannabinoid receptor 1 = Cannabinoid receptor 1 (Homo sapiens, UniProt P21554); assay type: functional, cell-based
[3] = biological target: T4, Alpha-2A adrenergic receptor (Homo sapiens, UniProt P08913); assay type: functional, cell-based
T4 sequence (P08913 whole entry): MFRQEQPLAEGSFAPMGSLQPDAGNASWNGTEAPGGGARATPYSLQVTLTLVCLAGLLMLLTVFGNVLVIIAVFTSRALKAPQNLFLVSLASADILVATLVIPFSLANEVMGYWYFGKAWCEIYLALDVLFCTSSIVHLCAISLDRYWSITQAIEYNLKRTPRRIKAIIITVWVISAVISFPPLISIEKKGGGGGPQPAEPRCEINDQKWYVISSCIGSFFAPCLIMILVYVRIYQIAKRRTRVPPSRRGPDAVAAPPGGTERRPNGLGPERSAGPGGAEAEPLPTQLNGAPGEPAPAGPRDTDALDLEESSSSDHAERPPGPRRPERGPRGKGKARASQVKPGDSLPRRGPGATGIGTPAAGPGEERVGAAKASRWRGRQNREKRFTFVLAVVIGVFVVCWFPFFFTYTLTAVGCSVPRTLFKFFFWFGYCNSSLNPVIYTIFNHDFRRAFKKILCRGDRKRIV

[4] = biological target: Sodium-dependent noradrenaline transporter (Homo sapiens, UniProt P23975)
[5] = biological target: Voltage-gated inwardly rectifying potassium channel KCNH2 (Homo sapiens, UniProt Q12809); assay type: functional; settings: read-out: AC50
[6] = biological target: T5, 5-hydroxytryptamine receptor 1A (Homo sapiens, UniProt P08908); assay type: functional, cell-based
T5 sequence (P08908 whole entry): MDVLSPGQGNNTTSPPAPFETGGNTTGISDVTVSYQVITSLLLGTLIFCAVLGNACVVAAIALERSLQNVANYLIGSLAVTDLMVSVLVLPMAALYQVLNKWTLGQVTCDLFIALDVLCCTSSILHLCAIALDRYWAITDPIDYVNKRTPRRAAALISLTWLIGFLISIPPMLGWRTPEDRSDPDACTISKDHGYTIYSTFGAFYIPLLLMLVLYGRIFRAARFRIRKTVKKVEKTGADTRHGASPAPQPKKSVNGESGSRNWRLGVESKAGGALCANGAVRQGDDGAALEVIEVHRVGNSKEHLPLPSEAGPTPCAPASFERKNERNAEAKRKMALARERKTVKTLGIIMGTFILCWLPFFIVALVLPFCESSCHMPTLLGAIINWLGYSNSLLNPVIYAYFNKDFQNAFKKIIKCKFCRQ

[7] = biological target: Beta-2 adrenergic receptor (Homo sapiens, UniProt P07550)
Note: assay procedure not described here.

Chain of 5-hydroxytryptamine receptor 2B (P41595 whole entry): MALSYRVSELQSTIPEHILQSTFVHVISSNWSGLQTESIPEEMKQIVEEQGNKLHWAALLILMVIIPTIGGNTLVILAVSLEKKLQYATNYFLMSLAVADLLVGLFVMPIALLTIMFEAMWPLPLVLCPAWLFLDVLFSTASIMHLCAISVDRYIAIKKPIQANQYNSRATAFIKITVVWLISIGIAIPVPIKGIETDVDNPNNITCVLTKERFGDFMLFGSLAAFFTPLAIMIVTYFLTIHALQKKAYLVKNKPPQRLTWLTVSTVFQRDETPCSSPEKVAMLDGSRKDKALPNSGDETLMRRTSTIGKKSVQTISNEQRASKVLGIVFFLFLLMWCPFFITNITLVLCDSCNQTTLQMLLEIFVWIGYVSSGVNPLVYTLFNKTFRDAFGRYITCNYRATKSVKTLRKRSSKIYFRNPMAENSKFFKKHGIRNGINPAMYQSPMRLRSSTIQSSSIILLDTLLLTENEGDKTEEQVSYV
Chain of Cannabinoid receptor 1 (P21554 whole entry): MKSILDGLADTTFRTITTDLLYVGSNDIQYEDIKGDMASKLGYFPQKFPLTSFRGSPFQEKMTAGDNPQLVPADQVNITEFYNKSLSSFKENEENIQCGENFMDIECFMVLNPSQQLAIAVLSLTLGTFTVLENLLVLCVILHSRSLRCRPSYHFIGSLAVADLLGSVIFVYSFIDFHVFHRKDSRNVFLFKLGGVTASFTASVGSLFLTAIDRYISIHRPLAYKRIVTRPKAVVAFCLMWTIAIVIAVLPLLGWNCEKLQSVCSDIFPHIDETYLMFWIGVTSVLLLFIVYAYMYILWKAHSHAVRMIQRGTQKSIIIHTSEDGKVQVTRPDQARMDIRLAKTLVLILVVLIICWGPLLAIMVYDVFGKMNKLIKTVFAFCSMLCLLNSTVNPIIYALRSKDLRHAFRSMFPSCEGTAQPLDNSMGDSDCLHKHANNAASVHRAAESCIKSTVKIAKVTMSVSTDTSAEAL
Chain of Beta-2 adrenergic receptor (P07550 whole entry): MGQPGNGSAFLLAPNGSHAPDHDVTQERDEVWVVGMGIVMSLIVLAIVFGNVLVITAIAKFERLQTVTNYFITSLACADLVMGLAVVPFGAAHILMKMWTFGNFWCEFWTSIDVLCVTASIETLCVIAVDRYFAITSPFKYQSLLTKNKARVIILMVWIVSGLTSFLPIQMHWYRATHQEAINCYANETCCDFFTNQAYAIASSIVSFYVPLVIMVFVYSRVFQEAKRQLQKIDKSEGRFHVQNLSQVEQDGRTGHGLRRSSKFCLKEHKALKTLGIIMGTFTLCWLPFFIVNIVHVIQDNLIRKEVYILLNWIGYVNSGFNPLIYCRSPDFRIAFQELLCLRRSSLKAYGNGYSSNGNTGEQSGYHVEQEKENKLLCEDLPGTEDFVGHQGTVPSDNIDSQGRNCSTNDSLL
Chain of Sodium-dependent noradrenaline transporter (P23975 whole entry): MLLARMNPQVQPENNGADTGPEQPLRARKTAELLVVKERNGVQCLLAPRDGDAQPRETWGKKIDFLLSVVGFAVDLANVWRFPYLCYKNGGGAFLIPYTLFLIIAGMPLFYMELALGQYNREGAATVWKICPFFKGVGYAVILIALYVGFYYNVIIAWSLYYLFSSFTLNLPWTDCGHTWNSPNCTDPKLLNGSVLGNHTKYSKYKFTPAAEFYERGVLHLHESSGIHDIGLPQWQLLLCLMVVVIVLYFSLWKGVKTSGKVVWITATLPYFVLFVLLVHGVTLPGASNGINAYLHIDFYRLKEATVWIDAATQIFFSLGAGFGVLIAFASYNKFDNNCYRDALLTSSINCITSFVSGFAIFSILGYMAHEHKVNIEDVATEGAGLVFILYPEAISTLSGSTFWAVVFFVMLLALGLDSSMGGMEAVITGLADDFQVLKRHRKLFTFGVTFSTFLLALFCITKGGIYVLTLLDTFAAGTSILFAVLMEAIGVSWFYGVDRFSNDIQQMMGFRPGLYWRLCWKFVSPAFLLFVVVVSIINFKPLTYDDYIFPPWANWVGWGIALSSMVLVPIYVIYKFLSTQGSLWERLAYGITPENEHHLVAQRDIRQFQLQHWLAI
Chain of Voltage-gated inwardly rectifying potassium channel KCNH2 (Q12809 whole entry): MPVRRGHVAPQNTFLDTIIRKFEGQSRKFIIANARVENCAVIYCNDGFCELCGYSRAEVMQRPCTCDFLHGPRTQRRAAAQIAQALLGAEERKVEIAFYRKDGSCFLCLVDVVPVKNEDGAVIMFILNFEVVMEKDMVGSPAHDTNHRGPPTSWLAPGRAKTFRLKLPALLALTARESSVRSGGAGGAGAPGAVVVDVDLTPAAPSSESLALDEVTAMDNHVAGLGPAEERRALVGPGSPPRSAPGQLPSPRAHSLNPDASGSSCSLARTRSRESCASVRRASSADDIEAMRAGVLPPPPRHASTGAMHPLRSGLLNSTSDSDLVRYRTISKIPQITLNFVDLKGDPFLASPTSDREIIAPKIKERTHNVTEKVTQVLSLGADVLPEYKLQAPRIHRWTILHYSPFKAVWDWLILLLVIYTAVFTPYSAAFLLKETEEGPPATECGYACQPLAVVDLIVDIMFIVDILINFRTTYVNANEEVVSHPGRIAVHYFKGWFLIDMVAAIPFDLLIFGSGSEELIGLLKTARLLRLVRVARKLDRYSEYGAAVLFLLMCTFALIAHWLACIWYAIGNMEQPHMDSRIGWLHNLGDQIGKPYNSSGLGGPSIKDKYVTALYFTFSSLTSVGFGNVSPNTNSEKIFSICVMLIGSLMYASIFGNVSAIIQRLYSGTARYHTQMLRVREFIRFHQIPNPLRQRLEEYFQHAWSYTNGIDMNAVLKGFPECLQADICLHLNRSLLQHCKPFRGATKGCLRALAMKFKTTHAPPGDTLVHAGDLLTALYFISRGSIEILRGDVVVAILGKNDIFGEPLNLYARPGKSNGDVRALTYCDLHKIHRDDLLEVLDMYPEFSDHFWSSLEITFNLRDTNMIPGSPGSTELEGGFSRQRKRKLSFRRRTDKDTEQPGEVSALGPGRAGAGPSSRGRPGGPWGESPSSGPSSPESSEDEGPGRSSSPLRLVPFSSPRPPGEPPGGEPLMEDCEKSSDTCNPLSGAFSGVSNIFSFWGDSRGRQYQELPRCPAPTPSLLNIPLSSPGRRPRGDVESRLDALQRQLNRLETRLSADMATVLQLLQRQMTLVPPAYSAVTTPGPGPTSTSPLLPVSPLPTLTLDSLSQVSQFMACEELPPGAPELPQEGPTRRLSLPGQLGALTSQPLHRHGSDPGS

Row | Compound | AC50 (Adenosine receptor A3) [µM] | AC50 [1] [µM] | AC50 [2] [µM] | AC50 (Adenosine receptor A1) [µM] | AC50 (Cannabinoid receptor 1) [µM] | AC50 [3] [µM] | AC50 [4] [µM] | AC50 [5] [µM] | AC50 [6] [µM] | AC50 [7] [µM]
1 | C=C1CC[C@@]2(O)[C@H]3Cc4ccc(O)c5c4[C@@]2(CCN3CC2CC2)[C@H]1O5 | > 30 | > 30 | > 30 | > 30 | > 30 | > 30 | > 30 | 28 | > 30 | 
2 | COc1ccc2c(c1)c(CC(=O)OCC(=O)O)c(C)n2C(=O)c1ccc(Cl)cc1 [ACEMETACIN] | > 30 | > 30 | > 30 | > 30 | > 30 | > 30 | > 30 | > 30 | 25 | > 30
3 | Nc1ncnc2c1ncn2[C@@H]1O[C@H](COP(=O)(O)O)[C@@H](O)[C@H]1O [ADENOSINE PHOSPHATE] | > 30 | > 30 | > 30 | > 30 | > 30 | > 30 | > 30 | 15 |  | > 30
4 | CCCC(CCC)C(=O)O[C@H]1C[C@H]2CC[C@@H](C1)[N+]2(C)C [ANISOTROPINE] | > 30 | > 30 | > 30 | > 30 | > 30 | > 30 |  | 2.1 |  | 
5 | CC(C)c1c(C(=O)Nc2ccccc2)c(-c2ccccc2)c(-c2ccc(F)cc2)n1CC[C@@H](O)C[C@@H](O)CC(=O)O [ATORVASTATIN] | > 30 |  | > 30 | > 30 | > 30 | > 10 | > 30 |  | > 10 | > 10
6 | CCCCN1CCCCC1C(=O)Nc1c(C)cccc1C (stereo unspecified) [BUPIVACAINE] | > 30 | > 30 | > 30 | > 30 | > 30 | > 30 |  | 11 | > 30 | 
7 | CCOC(=O)[C@H](CCc1ccccc1)N[C@H]1CCCN2CCC[C@@H](C(=O)O)N2C1=O [CILAZAPRIL] | > 30 | > 30 | > 30 | > 30 | > 30 | > 30 | > 30 | > 30 |  | > 30
8 | [H]/N=C(/N)c1ccc(NCc2nc3cc(C(=O)N(CCC(=O)O)c4ccccn4)ccc3n2C)cc1 [DABIGATRAN] | > 30 | > 30 | > 30 | > 30 | > 30 | > 30 | > 30 | > 30 |  | 
9 | COc1c(N2CCNC(C)C2)c(F)cc2c(=O)c(C(=O)O)cn(C3CC3)c12 (stereo unspecified) [GATIFLOXACIN] | > 10 | > 10 | > 30 | > 10 |  | > 10 | > 10 | 24 | > 10 | > 10
10 | COC(=O)C1=C(C)NC(C)=C(C(=O)OC(C)C)C1c1cccc2nonc12 (stereo unspecified) [ISRADIPINE] | 20.3 | > 10 | > 30 | > 30 |  | > 10 | > 30 | > 30 | > 10 | > 10
11 | CCN1CCC[C@H]1CNC(=O)c1cc(S(N)(=O)=O)ccc1OC [LEVOSULPIRIDE] | > 30 | > 10 | > 30 | > 30 | > 30 | > 10 | > 30 | > 30 |  | > 30
12 | CC/C=C\C/C=C\C/C=C\CCCCCCCC(=O)O [LINOLENIC ACID] | > 30 |  | > 30 | > 30 | > 30 | > 30 | > 30 | > 30 |  | 
13 | C[C@H]1C[C@@H]2[C@H]([C@@H](O)C[C@@]3(C)[C@H]2CC[C@]3(O)C(=O)COC(=O)CCC(=O)O)[C@@]2(C)C=CC(=O)C=C12 [METHYLPREDNISOLONE HEMISUCCINATE] | > 30 | > 30 | > 30 | > 30 | > 30 | > 30 | > 30 | > 30 | > 30 | 
14 | CCCCC(C)(O)C/C=C/[C@H]1[C@H](O)CC(=O)[C@@H]1CCCCCCC(=O)OC (stereo partly specified) [MISOPROSTOL] | > 30 | > 30 | > 10 | > 30 | > 30 | > 30 | > 30 | > 30 | > 30 | 
15 | CN1C(=O)CC(c2ccccc2)C1=O (stereo unspecified) [PHENSUXIMIDE] | > 10 | > 10 | > 30 | > 10 | > 30 | > 10 | > 10 | > 30 |  | > 10
16 | O=C(O)CCCc1ccccc1 [PHENYLBUTANOIC ACID] | > 10 | > 30 | > 30 | > 10 |  | > 30 | > 10 | > 30 | > 10 | > 10
17 | CCN(CC)CCOC(=O)c1ccc(N)cc1 [PROCAINE] | > 30 | > 10 | > 30 | > 30 | > 30 | > 10 | > 30 | > 30 |  | > 10
18 | CCCOc1ccc(C(=O)OCCN(CC)CC)cc1N [PROPARACAINE] | > 30 | > 30 | > 30 | > 30 | > 30 | > 30 | > 30 | 6.4 |  | 
19 | Cc1nc2ccc(CN(C)c3ccc(C(=O)N[C@@H](CCC(=O)O)C(=O)O)s3)cc2c(=O)[nH]1 [RALTITREXED] | > 30 | > 30 | > 30 | > 30 |  | > 30 | > 30 | > 30 |  | > 30
20 | O=C1NCCN1CCN1CCC(c2cn(-c3ccc(F)cc3)c3ccc(Cl)cc23)CC1 [SERTINDOLE] | 16 | 0.6 |  | > 30 | > 30 |  | 2.7 |  |  | 
21 | Cc1c(Cl)cccc1Nc1ccccc1C(=O)O [TOLFENAMIC ACID] | 12 | > 30 | > 30 | > 30 | > 30 | 20 |  | > 30 | 22 | 
